SMILES strings stand for the structures.

37 compounds from patent publication US20200031811A1, “SUBSTITUTED MONO- AND POLYAZANAPHTHALENE DERIVATIVES AND THEIR USE” (Basilea Pharmaceutica International AG, priority 2015, published 2020) can be followed below.

One assay has as its target T1, MNK1 (Homo sapiens, UniProt Q9BUB5).
T1 construct: purchased Life Technologies or Carna Biosciences PV6023 or 02-145; host or cells: baculovirus infected insect cells
The experiment in a line: MNK inhibition assay (Z-Lyte kinase assay, Ser/Thr 7 peptide). Format: biochemical. The following applies: for IC50: recombinant GST-MNK1, 3 hours at 31° C. Summed up: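 Recombinant GST-MNK1 from baculovirus-infected insect cells, Z-Lyte Ser/Thr 7 peptide, enzyme set for ~30% phosphorylation in buffer-only wells; 3 hours at 31° C. Compounds at 50–10000 nM (potent ones down to 0.5 nM), at least duplicate. IC50 from % substrate phosphorylation versus buffer-only wells, fluorescence read-out.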

Assay [1] deals with human pancreatic cancer cell line MiaPaCa2 (ATCC CRL-1420). The experiment in a line: Cell growth assay (CellTiterGlo, 72 hours). The format is cell-based. The following applies: for IC50: MIA PaCa-2, MiaPaCa2 cells, 72 hours, read-out: IC50 MiaPaCa; for inhibition at 50 µM: MIA PaCa-2, at 50 μM; for inhibition at 50 µM / inhibition at 100 µM: read-out: Inhibition of MiaPaCa growth at indicated concentration; for inhibition at 100 µM: MIA PaCa-2, at 100 μM. Summed up:
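MiaPaCa2 cells (10^3/well) seeded in supplemented DMEM overnight, then exposed in quadruplicate to compound at 100 down to 0.1 μM for 72 h at 37° C. Growth read by CellTiterGlo luminescence, medium-only background subtracted, normalised to untreated cells; IC50 = concentration reducing growth to 50%.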

Where [2] appears, read: read-out: Inhibition of MNK1 activity at indicated concentration.

T1 sequence (Q9BUB5 whole entry): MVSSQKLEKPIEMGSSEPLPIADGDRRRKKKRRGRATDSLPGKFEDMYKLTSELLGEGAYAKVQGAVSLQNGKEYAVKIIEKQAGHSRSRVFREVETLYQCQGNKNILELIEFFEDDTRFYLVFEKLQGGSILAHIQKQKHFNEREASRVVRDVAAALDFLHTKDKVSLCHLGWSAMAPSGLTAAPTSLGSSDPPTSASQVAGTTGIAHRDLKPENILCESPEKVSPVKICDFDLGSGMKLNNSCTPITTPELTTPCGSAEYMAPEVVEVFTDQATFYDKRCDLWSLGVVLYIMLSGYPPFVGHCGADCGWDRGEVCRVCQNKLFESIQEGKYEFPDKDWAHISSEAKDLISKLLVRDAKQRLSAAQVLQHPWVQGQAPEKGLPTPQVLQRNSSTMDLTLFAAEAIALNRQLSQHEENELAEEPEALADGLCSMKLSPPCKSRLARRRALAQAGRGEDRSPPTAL

As to `COc1cc(N[C@H]2CC[C@H](N)CC2)cc2c(-c3cc4ccccc4o3)cncc12` [Example 143, N4-[4-(benzofuran-2-yl)-8-methoxy-6-isoquinolyl]cyclohexane-1,4-diamine], the IC50 was 0.474 µM on MNK1 and 1.96 µM in assay [1].

`NC1CCN(Cc2cc(F)c3cncc(-c4cc5ccccc5o4)c3c2)CC1` [Example 247]: the IC50 on MNK1 was 0.228 µM; in assay [1], 8.4 µM.

For `Nc1ccc(-c2cncc3ccc(CN4CCC(N)CC4)cc23)cn1` [Example 17], on MNK1 (setting [2]), the inhibition at 10 µM worked out at 100%. The inhibition at 50 µM in assay [1] was 61%.

For `NC1CCN(Cc2cc(Cl)c3cncc(-c4ccc(Cl)cc4)c3c2)CC1` [Example 237], the half-inhibitory concentration (IC50) was 0.426 µM on MNK1 and 7.8 µM in assay [1].

For `N[C@H]1CC[C@H](Nc2ccc3cncc(-c4ccccc4)c3c2)CC1` [Example 229, trans-N4-(4-phenyl-6-isoquinolyl)cyclohexane-1,4-diamine], the IC50 was 0.225 µM at MNK1 and 4.5 µM in assay [1].

In the case of `Nc1ncc(-c2ccc(F)cc2)c2cc(CN3CCC(N)CC3)ccc12` [Example 219], the results for the IC50 (at MNK1; in assay [1]) were 1.02 µM and 5.31 µM, respectively.

For the compound `NC1CCCN(Cc2ccc3cncc(-c4cc5ccccc5o4)c3c2)C1` (centres unmarked) [Example 293], the half-inhibitory concentration (IC50) on MNK1 stood at 2.08 µM; in assay [1] it was 14.5 µM.

For the compound `COc1cc(O[C@H]2CC[C@H](N)CC2)cc2c(-c3ccccc3)cnc(N)c12` [Example 321], the IC50 at MNK1 is 0.175 µM; in assay [1], 1.31 µM.

As to `N[C@@H]1CCC[C@H](Nc2ccc3cncc(-c4cc5ccccc5o4)c3c2)C1` [Example 292], the IC50 on MNK1 turned out to be 0.161 µM; in assay [1] it was 5.09 µM.

`Oc1ccc(-c2cnnc3ccc(CN4CCNCC4)cc23)cc1` [Example 85]: the IC50 on MNK1 came to 0.318 µM. The inhibition at 100 µM in assay [1] was 33%.

Regarding `Nc1cc[n+](Cc2ccc3cncc(-c4ccc(O)cc4)c3c2)cc1` [Example 122], the IC50 on MNK1 was 0.028 µM. Further, the inhibition at 100 µM in assay [1] is 37%.

For `COc1cc(CN2CCC(N)CC2)cc2c(-c3ccc(F)c(F)c3)cncc12` [Example 243], the IC50 was 0.347 µM on MNK1 and 5.73 µM in assay [1].

As to `Nc1cc(-c2cncc3ccc(CN4CCC(N)CC4)cc23)ccn1` [Example 16], the 50% inhibitory concentration (IC50) at MNK1 came out at 1.91 µM. In addition, the inhibition at 100 µM in assay [1] stood at 67%.

As for `NC1CCN(Cc2cc(Cl)c3cncc(-c4cc5ccccc5o4)c3c2)CC1` [Example 236, 1-[[4-(Benzofuran-2-yl)-8-chloro-6-isoquinolyl]methyl]piperidin-4-amine], the IC50 came out at 0.579 µM on MNK1 and 4.4 µM in assay [1].

On to `CN(C)C1CCN(Cc2ccc3cncc(-c4cc5ccccc5o4)c3c2)CC1` [Example 46, 1-[[4-(Benzofuran-2-yl)-6-isoquinolyl]methyl]-N,N-dimethyl-piperidin-4-amine], for which the IC50 amounted to 0.618 µM at MNK1 and 8.21 µM in assay [1].

For `Nc1ncc(-c2ccc(O)cc2)c2cc(CN3CCC(N)CC3)ccc12` [Example 94], the IC50 at MNK1 was 0.221 µM. In addition, the inhibition at 50 µM in assay [1] worked out at 27%.

Consider `Nc1ncc2ccc(CNc3ccnc4ccccc34)cc2c1-c1cc2ccccc2o1` [Example 261, 4-(Benzofuran-2-yl)-6-[(4-quinolylamino)methyl]isoquinolin-3-amine], for which the results for the IC50 (at MNK1; in assay [1]) were 0.054 µM and 3.99 µM, respectively.

Turning to `Nc1ncc(-c2ccccc2)c2cc(CN3CCC(N)CC3)cc(Cl)c12` [Example 257], the IC50 turned out to be 0.159 µM at MNK1 and 4.87 µM in assay [1].

For the compound `NC1CCN(Cc2cc(Cl)c3cncc(-c4ccc(F)c(F)c4)c3c2)CC1` [Example 238], the results for the IC50 (on MNK1; in assay [1]) were 0.234 µM and 9.08 µM, respectively.

Regarding `COc1cc2cncc(-c3cc4ccccc4o3)c2cc1CN1CCC(N)CC1` [Example 282, 1-[[4-(Benzofuran-2-yl)-7-methoxy-6-isoquinolyl]methyl]piperidin-4-amine], the values for the IC50 (at MNK1; in assay [1]) were 0.152 µM and 4.63 µM, respectively.

`c1ccc2oc(-c3cncc4ccc(CNc5ccnc6ncccc56)cc34)cc2c1` [Example 262, N-[[4-(Benzofuran-2-yl)-6-isoquinolyl]methyl]-1,8-naphthyridin-4-amine]: the IC50 at MNK1 was 0.028 µM; in assay [1] it was 6.8 µM.

As for `Nc1ccc(NCc2ccc3cncc(-c4cc5ccccc5o4)c3c2)cn1` [Example 129], the IC50 is 0.143 µM at MNK1 and 23.1 µM in assay [1].

In the case of `NC1CCN(Cc2ccc3cncc(-c4cccc(O)c4)c3c2)CC1` [Example 187], the half-inhibitory concentration (IC50) on MNK1 is 0.266 µM; in assay [1], 13 µM.

For the compound `c1ccc2oc(-c3cncc4ccc(NCC5CCCNC5)cc34)cc2c1` (centres unmarked) [Example 214], the figures for the IC50 (on MNK1; in assay [1]) were 0.534 µM and 1.42 µM, respectively.

With `NC1CCN(Cc2cc(Cl)c3cncc(-c4ccccc4)c3c2)CC1` [Example 241], the IC50 at MNK1 is 0.213 µM; in assay [1] it was 10.4 µM.

As to `COc1cc(CN2CCC(N)CC2)cc2c(-c3ccco3)cncc12` [Example 244], the IC50 was 0.116 µM on MNK1 and 14.2 µM in assay [1].

Regarding `Nc1cc[n+](Cc2ccc3c(N)ncc(-c4cc5ccccc5o4)c3c2)cc1` [Example 152, 6-[(4-Aminopyridin-1-ium-1-yl)methyl]-4-(benzofuran-2-yl)isoquinolin-1-amine], the results for the IC50 (on MNK1; in assay [1]) were 0.017 µM and 1.56 µM, respectively.

Take `NCCCOCc1ccc2cncc(-c3ccc(Cl)c(Cl)c3)c2c1` [Example 107]: the results for the concentration for half-maximal inhibition (IC50) (at MNK1; in assay [1]) were 1.12 µM and 21 µM, respectively.

On to `Nc1ncc(-c2cc(F)cc(F)c2)c2cc(CN3CCC(N)CC3)ccc12` [Example 222], for which the half-maximal inhibitory concentration (IC50) on MNK1 came out at 1.91 µM; in assay [1] it was 3.5 µM.

Consider `COC(=O)c1cccc(-c2cncc3ccc(CN4CCC(N)CC4)cc23)c1` [Example 12], for which the inhibition at 10 µM at MNK1 (setting [2]) was found to be 92%. Further, the inhibition at 100 µM in assay [1] came to 60%.

In the case of `N[C@@H]1CCN(Cc2ccc3cncc(-c4cc5ccccc5o4)c3c2)C[C@H]1O` [Example 268, (3R,4R/3S,4S)-4-Amino-1-[[4-(benzofuran-2-yl)-6-isoquinolyl]methyl]piperidin-3-ol], the results for the IC50 (at MNK1; in assay [1]) were 0.053 µM and 5.33 µM, respectively.

As for `NC1CCN(Cc2ccc3cncc(-c4cccnc4)c3c2)CC1` [Example 14], on MNK1 (at 1 μM, read-out: Inhibition of MNK1 activity at indicated concentration), the inhibition at 1 µM stood at 34%. Besides, the inhibition at 50 µM in assay [1] stood at 52%.

With `N[C@H]1CC[C@@H](C(=O)Nc2ccc3cncc(-c4cc5ccccc5o4)c3c2)CC1` [Example 157], the half-inhibitory concentration (IC50) on MNK1 came to 0.05 µM; in assay [1], 7.88 µM.

On to `Nc1cc(NCc2ccc3cncc(-c4cc5ccccc5o4)c3c2)ccn1` [Example 130, N4-[[4-(Benzofuran-2-yl)-6-isoquinolyl]methyl]pyridine-2,4-diamine], for which the values for the IC50 (at MNK1; in assay [1]) were 0.021 µM and 0.58 µM, respectively.

Regarding `NC1CCN(Cc2ccc3cncc(-c4ccc(NC(=O)Nc5ccncc5)cc4)c3c2)CC1` [Example 115], the IC50 at MNK1 came out at 0.49 µM. Further, the inhibition at 100 µM in assay [1] is 52%.

For the compound `c1ccc2oc(-c3cncc4ccc(CN5CCCCC5)nc34)cc2c1` [Example 301], the results for the IC50 (on MNK1; in assay [1]) were 1.72 µM and 51.7 µM, respectively.

For the compound `Fc1cnccc1NCc1ccc2cncc(-c3cc4ccccc4o3)c2c1` [Example 70], the IC50 was 0.032 µM on MNK1 and 12.2 µM in assay [1].
